# According to BindingDB's records for PubMed 33333396 (National University of Ireland Galway, 2021):
# Legend:
# [1] = target: T1, Bcl-2 homologous antagonist/killer (Homo sapiens, UniProt Q16611); test: Inhibition of Mcl-1/Bak (unknown origin)
# T1 sequence (Q16611 whole entry): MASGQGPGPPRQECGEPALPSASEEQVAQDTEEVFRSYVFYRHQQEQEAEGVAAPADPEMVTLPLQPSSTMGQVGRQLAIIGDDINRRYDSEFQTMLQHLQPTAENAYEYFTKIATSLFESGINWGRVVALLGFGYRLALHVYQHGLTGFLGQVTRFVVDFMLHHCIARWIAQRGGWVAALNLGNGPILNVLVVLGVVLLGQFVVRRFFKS
# [2] = target: T1, Bcl-2 homologous antagonist/killer; test: Binding affinity to Bak/Mcl-1 (unknown origin) protein protein interaction by fluorescence polarization assay
Compound,IC50 [1] [nM],Ki [2] [nM]
"Cc1cc2c(C(=O)NC(C)c3ccc(Cl)cc3)c(O)c(O)cc2c(O)c1-c1c(C)cc2c(C(=O)NC(C)c3ccc(Cl)cc3)c(O)c(O)cc2c1O (configuration not stated) [Apogossypol derivative, 8k]",230,
CC(C)Oc1cc(C(=O)Nc2ccc(C(=O)Nc3ccc(C(=O)O)cc3OC(C)C)nc2OC(C)C)ccc1N,,1790
